Results published in patent US20150224120A1, “COMPOSITIONS AND METHODS FOR TREATING HYPERPROLINEMIA-ASSOCIATED MENTAL DISORDERS” (priority 2011, published 2015).
“Also recorded” adds a separate entry of the source. Like-named read-outs stand apart in the source and are kept apart here.

Assays:
[1] = test system: PRODH expression; conditions: bronchial smooth muscle cells, treated (n=3) vs untreated (n=3), p=0.01; cited from earlier work
[2] = test system: PRODH expression; test: Peripheral PRODH expression in first-episode never-medicated SZ patients pre and post treatment (Affymetrix U133v2.0 arrays); type: in vivo, human
Source text: Change in log PRODH were plotted for each subject prior to-(100%), and post-treatment onset. All of the subjects received risperidone. The mean time between blood draws was 8.3 days. […] There were no significant differences in time between blood draws for those with increased PRODH (n=3), versus those with no increase (n=3, p=0.2). […] In a linear regression model, PRODH percent change was a significant predictor of total Brief Psychiatric Rating Scale (BPRS) score approximately 8 days following treatment initiation (p=0.047), after adjusting for baseline total BPRS score. Furthermore, the linear relationship between PRODH change and adjusted BPRS score was highly significant (r=−0.92, p=0.025).
Exploratory analysis of PRODH expression levels were also performed in first-episode, never-medicated SZ patients (n=6). Male, first-episode, never-medicated SZ patients were recruited at the Bellevue Hospital CPEP. A 15 ml blood sample was collected at admission to the CPEP, and peripheral PRODH expression was measured using Affymetrix U133v2.0 arrays (PRODH is one of the 54,000 transcripts). A post-treatment measurement of PRODH expression was also obtained (mean time between blood draws=8.3 days).

[3] = women with high vs low dietary consumption; cited from earlier work
[4] = test system: plasma proline; test: Fasting plasma proline before and after oral Vitamin D supplementation; type: in vivo; conditions: oral 2000 IU daily, five fasting measurements before and five over subsequent five days, p=0.059
Source text: Affymetrix microarray data was accessed via the NCBI GEO database, accession numbers GDS1847 (FIG. 4A) and GDS2628 (FIG. 4B). […] Five fasting plasma proline measurements were obtained prior to the initiation of Vitamin D supplementation (2000 IU daily), after which an additional five fasting plasma measurements were obtained over the subsequent five days.
As illustrated by FIG. 4, the biologically active form of vitamin D (1α,25-dihydroxyvitamin D3 [1α,25(OH)2D3]) is also a potent regulator of PRODH expression. […] Moreover, in vivo (FIG. 4C), proline levels are decreased by treatment with oral vitamin D.

[5] = male infants receiving supplements (≦2000 IU/day) during first year of life; cited from earlier work
[6] = test system: PRODH expression; conditions: intestinal epithelial cells, treated (n=5) vs untreated control cells (n=5), p=0.044 one-tailed, cited from earlier work
[7] = test system: plasma proline; conditions: previously reported (Jacquet et al., 2005); cited from earlier work

## C=C1/C(=C\C=C2/CCC[C@]3(C)[C@@H]([C@H](C)CCCC(C)(C)O)CC[C@@H]23)C[C@@H](O)C[C@@H]1O [1alpha,25-dihydroxy-vitamin-D3]
[1]
  PRODH expression (probeset 214203_s_at): upregulation

## Cc1nc2n(c(=O)c1CCN1CCC(c3noc4cc(F)ccc34)CC1)CCCC2 [risperidone]
[2]; all subjects n=6, mean 8.3 days between blood draws, pre level 6.10±0.41, p=0.3
  PRODH expression post-treatment level (mean): 6.24±0.35 expression units
[2]; no-change group, n=3, non-significant, p=0.15
  decrease of PRODH expression after onset of treatment: 2.3%
[2]; subset of patients (n=3), p=0.034
  change in PRODH expression between pre and post assay: significantly upregulated
[2]; subset of subjects with increase, n=3, p=0.04
  mean percent change (increase) of PRODH expression after onset of treatment: 7.3%

## vitamin D
[3]
  lower risk of psychosis-like symptoms: 37%
[4]
  plasma proline following Vitamin D treatment: trend for plasma proline to decrease
[4]; listed as vitamin D
  plasma proline following Vitamin D treatment: decreased
[1]
  PRODH expression (probeset 214203_s_at): significantly upregulates; also recorded: upregulation
[5]
  risk of schizophrenia: significantly reduced risk
[6]
  PRODH expression (probeset 40042_r_at): upregulated
[6]; listed as vitamin D
  PRODH expression (probeset 40042_r_at): significantly upregulates

## CCCC(CCC)C(=O)O [valproic acid]
[7]
  effect on plasma proline level: significant effect
